Assay results reported in patent publication US4420484A, “Basic amino or ammonium antimicrobial agent-polyethylene glycol ester surfactant-betaine and/or amine oxide surfactant compositions and method of use therof” (Sterling Drug Inc., priority 1981, dated 1983).

Tested on: Staphylococcus aureus ATCC 6538
Test: Compatibility with prototype vehicle, serial dilution test (MIC)
Type: cell-based
Conditions: Id expressed as free base, IVa-IVc expressed as cation, 16-18 h, 37° C
Experimental: Compatability of the antimicrobial agents of Formula Id, Formula IIa, Formula IVa (A=Br), Formula IVb (A=Br) and Formula IVc (A=Br) with a prototype vehicle of the invention was tested by a serial dilution test against Staphylococcus aureus ATCC 6538. Volumes of two milliliters were used. Dilutions were in tryptose-phosphate broth. Incubation was for 16-18 hours at 37° C. Growth was verified with 2,3,5-triphenyltetrazoliumchloride. The inoculum was 1.8×10^5 viable cells per tube. There follows the formula of the prototype vehicle. […]

Structure (SMILES) | Minimum Inhibitory Concentration (MIC) (added vehicle 0 μg/ml) | Minimum Inhibitory Concentration (MIC) (added vehicle 15.6 μg/ml) | Minimum Inhibitory Concentration (MIC) (added vehicle 31.2 μg/ml) | Minimum Inhibitory Concentration (MIC) (added vehicle 62.5 μg/ml) | Minimum Inhibitory Concentration (MIC) (added vehicle 125.0 μg/ml) | Minimum Inhibitory Concentration (MIC) (added vehicle 250.0 μg/ml) | Minimum Inhibitory Concentration (MIC) (added vehicle 500.0 μg/ml) | Minimum Inhibitory Concentration (MIC) (added vehicle 1000.0 μg/ml) | Minimum Inhibitory Concentration (MIC) (added vehicle 2000.0 μg/ml) | Minimum Inhibitory Concentration (MIC) (added vehicle 4000.0 μg/ml) | Minimum Inhibitory Concentration (MIC) (added vehicle 8000.0 μg/ml)
CCCCCCCCCCCCCC[N+](C)(C)Cc1ccccc1 [Compound of Formula IIa, benzalkonium chloride, reference compound] | 0.5 µg/mL | 0.5 µg/mL | 0.5 µg/mL | 0.5 µg/mL | 0.5 µg/mL | 0.5 µg/mL | 0.5 µg/mL | 1.0 µg/mL | 1.0 µg/mL | 1.95 µg/mL | 1.95 µg/mL
CCCCCCCN=c1ccn(CCCCCCCCCCCCn2ccc(=NCCCCCCC)cc2)cc1 [Compound of Formula IVa] | 0.39 µg/mL | 0.195 µg/mL | 0.39 µg/mL | 0.39 µg/mL | 0.10 µg/mL | 0.10 µg/mL | 0.10 µg/mL | 0.195 µg/mL | 0.10 µg/mL | 0.195 µg/mL | 0.10 µg/mL
CCCCCCCCN=c1ccn(CCCCCCCCCCn2ccc(=NCCCCCCCC)cc2)cc1 [Compound of Formula IVb] | 0.5 µg/mL | 0.5 µg/mL | 0.5 µg/mL | 0.5 µg/mL | 0.5 µg/mL | 0.25 µg/mL | 0.125 µg/mL | 0.125 µg/mL | 0.125 µg/mL | 0.25 µg/mL | 0.25 µg/mL
CCCCC(CC)CN=c1ccn(CCCCCCCCCCCCn2ccc(=NCC(CC)CCCC)cc2)cc1 (stereo not shown) [Compound of Formula IVc] | 0.25 µg/mL | 0.25 µg/mL | 0.25 µg/mL | 0.25 µg/mL | 0.125 µg/mL | 0.0625 µg/mL | 0.125 µg/mL | 0.125 µg/mL | 0.125 µg/mL | 0.25 µg/mL | 0.25 µg/mL
CCCCCCCNC(=N)NC(=N)NCCCCCCNC(=N)NC(=N)NCCCCCCC [Compound of Formula Id] | 0.25 µg/mL | 0.25 µg/mL | 0.25 µg/mL | 0.25 µg/mL | 0.25 µg/mL | 0.25 µg/mL | 0.25 µg/mL | 0.25 µg/mL | 0.50 µg/mL | 0.50 µg/mL | 0.50 µg/mL
